According to PubChem BioAssay AID743237 (The Scripps Research Institute Molecular Screening Center, 2013):
Active and inactive are the calls of the source. No rule for the calls is given here.

System: Galpha16-expressing cells, calcium fluorescence, counterscreen
Assay: Ga16 cell calcium inhibition, concentration series – fluorescence, dose response, counter-screen for TAAR1 antagonist project, late-stage follow-up (AID 743237)

| SMILES | IC50 |
| --- | --- |
| COc1cc(NC(=O)c2cc3ccccc3o2)c(OC)cc1Cl | > 29.9 µM (inactive) |
| O=C(NCCn1cc(SCc2ccccc2F)c2ccccc21)c1c(F)cccc1F | > 29.9 µM (inactive) |
| Cc1coc(NC(=O)CSc2nc(-c3ccc(Cl)cc3)cc(C(F)(F)F)c2C#N)n1 | > 29.9 µM (inactive) |
| CCOC(=O)C1CCCN(c2c(C(=O)c3ccccc3)cnc3ccc(OC)cc23)C1 (centres undefined) | > 29.9 µM (inactive) |
| COc1cccc(-c2nn(-c3ccccc3)cc2C(=O)Nc2nccs2)c1 | > 29.9 µM (inactive) |
| Cc1ccc(CSCC(=O)Nc2cc(S(=O)(=O)N3CCOCC3)ccc2OCC(F)(F)F)cc1 | > 29.9 µM (inactive) |
| Cc1cccc(C(C#N)c2nc3ccccc3nc2C(F)(F)F)c1 (centres undefined) | > 29.9 µM (inactive) |
| CCCCC(=O)Nc1ccc(C(=O)Nc2ccc(S(=O)(=O)N3CCCC3)cc2)cc1 | > 29.9 µM (inactive) |
| CC(=O)c1ccc(NC(=O)c2ccc(COc3ccccc3[N+](=O)[O-])o2)cc1 | > 29.9 µM (inactive) |
